# How the values were obtained:
# PLXDC2 = molecular target: T1, PLXDC2 (Homo sapiens, UniProt Q6UX71); assay: Gfi1b promotor luciferase receptor activation assay, PLXDC2-expressing cells (FIG. 18B); format: cell-based; conditions: compound treatments 1 day
# T1 construct: host or cells: PLXDC2-expressing cells
# From the text: (§1) FIG. 18A-B show activation of PLXDC1 and PLXDC2 by small molecules. […] All compound treatments were done for 1 day. Basal promotor activity of the PLXDC1-expressing cells is defined as 1.
# (§2) By linking its promotor to a luciferase reporter gene, this example developed a PLXDC1 receptor activation assay.
# PLXDC1 = molecular target: T2, PLXDC1 (Homo sapiens, UniProt Q8IUK5); assay: Gfi1b promotor luciferase receptor activation assay, PLXDC1-expressing cells (FIG. 18A, 19); format: cell-based; conditions: compound treatments 1 day; basal activity defined as 1
# T2 construct: expressed in transfected cells
# T2 sequence (Q8IUK5 19-500): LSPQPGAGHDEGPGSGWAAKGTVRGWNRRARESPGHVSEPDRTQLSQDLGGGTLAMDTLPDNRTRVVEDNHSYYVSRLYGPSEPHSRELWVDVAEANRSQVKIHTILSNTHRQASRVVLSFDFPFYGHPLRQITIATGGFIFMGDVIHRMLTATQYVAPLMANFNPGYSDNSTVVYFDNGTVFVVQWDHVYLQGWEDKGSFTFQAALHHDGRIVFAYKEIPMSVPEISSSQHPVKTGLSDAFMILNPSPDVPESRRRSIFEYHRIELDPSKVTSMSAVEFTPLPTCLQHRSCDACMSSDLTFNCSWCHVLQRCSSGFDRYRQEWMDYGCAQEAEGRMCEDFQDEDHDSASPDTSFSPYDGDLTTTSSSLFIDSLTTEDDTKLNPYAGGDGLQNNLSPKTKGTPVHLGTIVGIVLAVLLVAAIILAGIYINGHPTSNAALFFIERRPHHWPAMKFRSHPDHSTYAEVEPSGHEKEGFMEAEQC
# From the text: as §1
# Basal promotor activity of the PLXDC1-expressing cells is defined as 1. The basal activity of PLXDC1-expressing cells (Control) are higher than cells without PLXDC1, consistent promotor activation by the ectopic expression of the receptor without ligands.
# as §2
# [1] = system: LL/2 lung cancer tumor endothelial cells; assay: Lung LL2 ex vivo model of tumor angiogenesis; format: cell-based, mouse; conditions: 20 μm
# Procedure, shortened: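 Live/dead imaging with FDA and PI, taken e.g. 48 h post-drug under fixed channel settings, measures treatment effects on endothelial cells sprouting from Lewis lung tumor explants. Explants were seeded in Matrigel drops and grown ~4 days in endothelial growth medium, 37 °C, 5% CO2, before dosing.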
# T1 sequence (Q6UX71 31-529): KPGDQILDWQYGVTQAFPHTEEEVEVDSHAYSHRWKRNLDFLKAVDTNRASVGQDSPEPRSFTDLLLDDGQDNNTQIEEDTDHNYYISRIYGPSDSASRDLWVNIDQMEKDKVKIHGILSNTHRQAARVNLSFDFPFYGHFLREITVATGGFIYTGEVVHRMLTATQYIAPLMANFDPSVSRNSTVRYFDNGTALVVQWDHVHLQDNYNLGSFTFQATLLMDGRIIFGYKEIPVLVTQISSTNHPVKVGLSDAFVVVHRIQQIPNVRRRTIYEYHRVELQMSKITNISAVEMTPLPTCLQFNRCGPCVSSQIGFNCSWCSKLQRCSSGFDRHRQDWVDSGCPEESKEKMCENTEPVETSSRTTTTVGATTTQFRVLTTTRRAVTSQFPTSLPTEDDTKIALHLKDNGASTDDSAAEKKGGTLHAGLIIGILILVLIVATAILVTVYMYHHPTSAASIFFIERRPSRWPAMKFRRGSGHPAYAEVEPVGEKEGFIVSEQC
smiles,measurement,setting,value
CCCCCCCCCCCCCCOc1ccc(S(=O)(=O)c2cnc3ccc([S+](C)[O-])cc3c2N2CCC(N3CCC(N4CCN(C)CC4)CC3)CC2)cc1 (stereo not shown) [Compound 346],Gfi1b promotor activity in PLXDC2-expressing cells,PLXDC2,activated the promotor activity in PLXDC2-expressing cells
same,Gfi1b promotor activity in PLXDC1-expressing cells,PLXDC1,highly activated the promotor activity
same,48 hrs (morphology observations),"[1]; 48 hours, LL/2 tumor endothelial cells",* (50% or less of cells vesicularize in cell shape)
same,Cell death,"[1]; drug treatment for two days, ratio of red area to total endothelial cell area",20%

# Reference: patent US20250230226A1, “PLXDC1/PLXDC2 ACTIVATORS AND THEIR USE IN THE TREATMENT OF BLOOD VESSEL DISORDERS” (THE REGENTS OF THE UNIVERSITY OF CALIFORNIA, priority 2019, published 2025)
